From patent US20100234390A1, “NOVEL COMPOUND AND THEIR USE” (priority 2007, published 2010)

Assays:
Experiment in all cases: Agar dilution MIC
Conditions in all cases: 35° C., 16-20 hours
S. aureus MRO 00059 = format: cell-based, Staphylococcus aureus
In short: (§1)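 Steps: dissolve compound in dimethyl sulfoxide; make two-fold serial dilutions in that solvent; incorporate each into molten MHA just before it sets; inoculate with a 1.5×10^7 CFU/mL saline suspension; incubate 16-20 hours at 35° C without added CO2.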

S. aureus MRO 00030 = format: cell-based, Staphylococcus aureus
In short: as §1

S. aureus ATCC 29213 = format: cell-based, Staphylococcus aureus
In short: as §1

S. aureus MRO 00048 = format: cell-based, Staphylococcus aureus
In short: as §1

S. aureus MRO 00055 = format: cell-based, Staphylococcus aureus
In short: as §1

S. aureus MRO 002053 = format: cell-based, Staphylococcus aureus
In short: as §1

S. aureus MRO 0001 = format: cell-based, Staphylococcus aureus
In short: as §1

S. aureus MRO 00013 = format: cell-based, Staphylococcus aureus
In short: as §1

S. aureus MRO 0003 = format: cell-based, Staphylococcus aureus
In short: as §1

S. aureus ATCC 43300 = format: cell-based, Staphylococcus aureus
In short: as §1

[1] = system: M. catarrhalis ATCC 43627; format: cell-based, Moraxella catarrhalis
In short: as §1

[2] = system: M. catarrhalis ATCC 43628; format: cell-based, Moraxella catarrhalis
In short: as §1

[3] = system: M. catarrhalis ATCC 43617; format: cell-based, Moraxella catarrhalis
In short: as §1

E. faecalis MRO 04050 = format: cell-based, Enterococcus faecalis
In short: as §1

E. faecalis MRO 04205 = format: cell-based, Enterococcus faecalis
In short: as §1

E. faecalis ATCC 51299 = format: cell-based, Enterococcus faecalis
In short: as §1

E. faecalis ATCC 29212 = format: cell-based, Enterococcus faecalis
In short: as §1

E. faecalis MRO 04035 = format: cell-based, Enterococcus faecalis
In short: as §1

E. faecium MRO 04037 = format: cell-based, Enterococcus faecium
In short: as §1

E. faecium MRO 04038 = format: cell-based, Enterococcus faecium
In short: as §1

E. faecium MRO 04198 = format: cell-based, Enterococcus faecium
In short: as §1

E. faecium ATCC 700221 = format: cell-based, Enterococcus faecium
In short: as §1

[4] = system: S. epidermidis MRO 002046; format: cell-based
In short: as §1

[5] = system: S. haemolyticus MRO 02064; format: cell-based
In short: as §1

S. epidermidis MRO 02045 = format: cell-based
In short: as §1

S. epidermidis MRO 02095 = format: cell-based
In short: as §1

S. epidermidis MRO 02002 = format: cell-based
In short: as §1

[6] = system: S. saprophyticus MRO 02003; format: cell-based
In short: as §1

## COC(=S)NC[C@H]1CN(c2ccc(N3CCN(C(=S)n4ccnc4)CC3)c(F)c2)C(=O)O1 [Example 76, (S)—O-Methyl(3-(4-(4-(1H-imidazole-1-carbonothioyl)piperazin-1-yl)-3-fluorophenyl)-2-oxooxazolidin-5-yl)methylcarbamothioate]
S. aureus MRO 00059
  Antimicrobial Screening (MIC): 0.25 µg/mL
S. aureus MRO 00030
  Antimicrobial Screening (MIC): 0.25 µg/mL
S. aureus ATCC 29213
  Antimicrobial Screening (MIC): 0.5 µg/mL
S. aureus MRO 00048
  Antimicrobial Screening (MIC): 0.25 µg/mL
S. aureus MRO 00055
  Antimicrobial Screening (MIC): 0.5 µg/mL
S. aureus MRO 002053
  Antimicrobial Screening (MIC): 0.25 µg/mL
S. aureus MRO 0001
  Antimicrobial Screening (MIC): 0.5 µg/mL
S. aureus MRO 00013
  Antimicrobial Screening (MIC): 0.5 µg/mL
S. aureus MRO 0003
  Antimicrobial Screening (MIC): 0.5 µg/mL
S. aureus ATCC 43300
  Antimicrobial Screening (MIC): 0.25 µg/mL
[1]
  Antimicrobial Screening (MIC): 1 µg/mL
[2]
  Antimicrobial Screening (MIC): 1 µg/mL
[3]
  Antimicrobial Screening (MIC): 1 µg/mL
E. faecalis MRO 04050
  Antimicrobial Screening (MIC): 0.25 µg/mL
E. faecalis MRO 04205
  Antimicrobial Screening (MIC): 0.25 µg/mL
E. faecalis ATCC 51299
  Antimicrobial Screening (MIC): 0.25 µg/mL
E. faecalis ATCC 29212
  Antimicrobial Screening (MIC): 0.25 µg/mL
E. faecalis MRO 04035
  Antimicrobial Screening (MIC): 0.25 µg/mL
E. faecium MRO 04037
  Antimicrobial Screening (MIC): 0.25 µg/mL
E. faecium MRO 04038
  Antimicrobial Screening (MIC): 0.25 µg/mL
E. faecium MRO 04198
  Antimicrobial Screening (MIC): 0.25 µg/mL
E. faecium ATCC 700221
  Antimicrobial Screening (MIC): 0.25 µg/mL
[4]
  Antimicrobial Screening (MIC): 0.25 µg/mL
[5]
  Antimicrobial Screening (MIC): 0.25 µg/mL
S. epidermidis MRO 02045
  Antimicrobial Screening (MIC): 0.25 µg/mL
S. epidermidis MRO 02095
  Antimicrobial Screening (MIC): 0.25 µg/mL
S. epidermidis MRO 02002
  Antimicrobial Screening (MIC): 0.25 µg/mL
[6]
  Antimicrobial Screening (MIC): 0.5 µg/mL
